Results: US20210317134A1, “UBIQUITIN-SPECIFIC-PROCESSING PROTEASE 7 (USP7) MODULATORS AND USES THEREOF” (RAPT THERAPEUTICS, INC., priority 2019, published 2021)

Molecular target: USP7 (Homo sapiens, UniProt Q93009)
Test: USP7 inhibitory potency (Table 1)
Format: biochemical

Chain of USP7 (Q93009 whole entry): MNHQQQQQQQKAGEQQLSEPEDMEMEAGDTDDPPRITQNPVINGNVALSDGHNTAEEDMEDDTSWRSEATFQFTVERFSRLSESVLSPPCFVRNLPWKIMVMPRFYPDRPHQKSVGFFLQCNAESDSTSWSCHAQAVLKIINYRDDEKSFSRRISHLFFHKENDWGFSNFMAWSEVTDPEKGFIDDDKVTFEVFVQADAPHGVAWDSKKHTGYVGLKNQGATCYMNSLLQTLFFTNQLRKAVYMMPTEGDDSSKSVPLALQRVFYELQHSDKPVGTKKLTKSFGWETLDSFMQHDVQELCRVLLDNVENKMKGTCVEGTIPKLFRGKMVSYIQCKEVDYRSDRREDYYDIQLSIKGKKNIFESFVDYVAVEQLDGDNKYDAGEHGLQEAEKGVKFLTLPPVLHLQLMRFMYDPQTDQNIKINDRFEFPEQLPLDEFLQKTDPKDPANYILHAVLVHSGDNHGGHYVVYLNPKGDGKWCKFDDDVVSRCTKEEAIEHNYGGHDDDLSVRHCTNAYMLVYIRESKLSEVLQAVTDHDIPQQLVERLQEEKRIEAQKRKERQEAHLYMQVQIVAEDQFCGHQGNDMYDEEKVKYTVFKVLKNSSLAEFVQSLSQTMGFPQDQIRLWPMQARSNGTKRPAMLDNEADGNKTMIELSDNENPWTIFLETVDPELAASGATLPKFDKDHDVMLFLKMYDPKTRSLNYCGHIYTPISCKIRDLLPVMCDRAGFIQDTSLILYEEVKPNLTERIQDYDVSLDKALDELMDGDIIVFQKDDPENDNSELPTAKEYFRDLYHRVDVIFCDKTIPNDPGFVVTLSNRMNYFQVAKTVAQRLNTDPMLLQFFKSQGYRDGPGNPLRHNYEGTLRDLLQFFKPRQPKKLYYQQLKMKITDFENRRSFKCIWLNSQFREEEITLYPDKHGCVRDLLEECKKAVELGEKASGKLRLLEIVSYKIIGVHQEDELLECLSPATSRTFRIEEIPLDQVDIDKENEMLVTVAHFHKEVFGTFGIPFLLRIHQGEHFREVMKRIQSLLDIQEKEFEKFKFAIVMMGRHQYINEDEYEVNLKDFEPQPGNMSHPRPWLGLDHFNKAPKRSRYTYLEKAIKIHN

IC50 | SMILES
1000 to 10000 nM | O=C(C1Cc2cc(Cl)cc(-c3ccnc4[nH]ccc34)c2O1)N1CCC(c2ccncc2)CC1 (stereo not drawn) [(5-chloro-7-(1H-pyrrolo[2,3-b]pyridin-4-yl)-2,3-dihydrobenzofuran-2-yl)(4-(pyridin-4-yl)piperidin-1-yl)methanone]
< 1000 nM | CN[C@H]1CCCN(C(=O)[C@H]2Cc3cc(Cl)cc(-c4ccnc5cc(CO)sc45)c3O2)C1 [((R)-5-chloro-7-(2-(hydroxymethyl)thieno[3,2-b]pyridin-7-yl)-2,3-dihydrobenzofuran-2-yl)((S)-3-(methylamino)piperidin-1-yl)methanone]
1000 to 10000 nM | O=C(C1Cc2cc(Cl)cc(-c3ccnc4ccccc34)c2O1)N1CCNCC1 (stereo not drawn) [(5-chloro-7-(quinolin-4-yl)-2,3-dihydrobenzofuran-2-yl)(piperazin-1-yl)methanone]
< 1000 nM | CN(C)C1CCCN(C(=O)[C@H]2Cc3cc(Cl)cc(-c4ccnc5ccsc45)c3O2)C1 (stereo partly drawn) [((R)-5-chloro-7-(thieno[3,2-b]pyridin-7-yl)-2,3-dihydrobenzofuran-2-yl)(3-(dimethylamino)piperidin-1-yl)methanone]
10000 to 30000 nM | O=C(C1Cc2cc(Cl)cc(-c3ccnc4ccc(Cl)cc34)c2O1)N1CCNCC1 (stereo not drawn) [(5-chloro-7-(6-chloroquinolin-4-yl)-2,3-dihydrobenzofuran-2-yl)(piperazin-1-yl)methanone]
1000 to 10000 nM | O=C(C1Cc2cc(Cl)cc(-c3ccnc4[nH]ccc34)c2O1)N1CCC(O)(c2ccccc2F)CC1 (stereo not drawn) [(5-chloro-7-(1H-pyrrolo[2,3-b]pyridin-4-yl)-2,3-dihydrobenzofuran-2-yl)(4-(2-fluorophenyl)-4-hydroxypiperidin-1-yl)methanone]
10000 to 30000 nM | O=C(C1Cc2cc(Cl)cc(-c3ccnc4[nH]ccc34)c2O1)N1CCN(c2ccccn2)CC1 (stereo not drawn) [(5-Chloro-7-(1H-pyrrolo[2,3-b]pyridin-4-yl)-2,3-dihydrobenzofuran-2-yl)(4-(pyridin-2-yl)piperazin-1-yl)methanone]
1000 to 10000 nM | C[C@@H]1C[C@H](NC(=O)C2Cc3cc(Cl)cc(-c4ccnc5[nH]ccc45)c3O2)CCN1 (stereo partly drawn) [5-chloro-N-((2R,4R)-2-methylpiperidin-4-yl)-7-(1H-pyrrolo[2,3-b]pyridin-4-yl)-2,3-dihydrobenzofuran-2-carboxamide]
< 1000 nM | NCc1cc2nccc(-c3cc(Cl)cc4c3O[C@@H](C(=O)N3CCNCC3)C4)c2s1 [(R)-(7-(2-(aminomethyl)thieno[3,2-b]pyridin-7-yl)-5-chloro-2,3-dihydrobenzofuran-2-yl)(piperazin-1-yl)methanone]

The next lines start with the molecule.

SMILES | IC50
O=C(C1Cc2cc(Cl)cc(-c3ccnc(NCCO)c3)c2O1)N1CCNCC1 (stereo not drawn) [(5-chloro-7-(2-((2-hydroxyethyl)amino)pyridin-4-yl)-2,3-dihydrobenzofuran-2-yl)(piperazin-1-yl)methanone] | 1000 to 10000 nM
O=C1CCC(=O)N1Cc1cc2ncnc(-c3cc(Cl)cc4c3O[C@@H](c3onc5c3CNCC5)C4)c2o1 [(R)-1-((4-(5-chloro-2-(4,5,6,7-tetrahydroisoxazolo[4,3-c]pyridin-3-yl)-2,3-dihydrobenzofuran-7-yl)furo[3,2-d]pyrimidin-6-yl)methyl)pyrrolidine-2,5-dione] | < 1000 nM
Fc1ccc2nccc(-c3cc(Cl)cc4c3O[C@@H](c3onc5c3CNCC5)C4)c2c1 [(R)-3-(5-chloro-7-(6-fluoroquinolin-4-yl)-2,3-dihydrobenzofuran-2-yl)-4,5,6,7-tetrahydroisoxazolo[4,3-c]pyridine] | < 1000 nM
CCC(O)c1cc2nccc(-c3cc(Cl)cc4c3O[C@@H](c3onc5c3CNCC5)C4)c2o1 (stereo partly drawn) [drawing 1522, 1-(7-((R)-5-chloro-2-(4,5,6,7-tetrahydroisoxazolo[4,3-c]pyridin-3-yl)-2,3-dihydrobenzofuran-7-yl)furo[3,2-b]pyridin-2-yl)propan-1-ol] | < 1000 nM
OCc1cc2nccc(-c3cc(Cl)cc4c3O[C@@H](c3onc5c3CNCC5)CC4)c2s1 [(R)-(7-(6-chloro-2-(4,5,6,7-tetrahydroisoxazolo[4,3-c]pyridin-3-yl)chroman-8-yl)thieno[3,2-b]pyridin-2-yl)methanol] | < 1000 nM
CN(C)C1CCc2nn(C)c([C@H]3Cc4cc(Cl)cc(-c5ccnc6cc(CO)sc56)c4O3)c2C1 (stereo partly drawn) [(7-((2R)-5-chloro-2-(5-(dimethylamino)-2-methyl-4,5,6,7-tetrahydro-2H-indazol-3-yl)-2,3-dihydrobenzofuran-7-yl)thieno[3,2-b]pyridin-2-yl)methanol] | < 1000 nM
O=C([C@H]1Cc2cc(Cl)cc(-c3ccnc4c3CC(CN3C(=O)CCC3=O)C4)c2O1)N1CCNCC1 (stereo partly drawn) [1-((4-((R)-5-chloro-2-(piperazine-1-carbonyl)-2,3-dihydrobenzofuran-7-yl)-6,7-dihydro-5H-cyclopenta[b]pyridin-6-yl)methyl)pyrrolidine-2,5-dione] | < 1000 nM
O=C1CN(Cc2cc3nccc(-c4cc(Cl)cc5c4O[C@@H](C(=O)N4CCNCC4)C5)c3s2)C(=O)N1 [(R)-1-((7-(5-chloro-2-(piperazine-1-carbonyl)-2,3-dihydrobenzofuran-7-yl)thieno[3,2-b]pyridin-2-yl)methyl)imidazolidine-2,4-dione] | < 1000 nM
CN(C)[C@H]1CCN(C(=O)[C@H]2Cc3cc(Cl)cc(-c4ccnc5cc(CO)sc45)c3O2)C1 [((R)-5-chloro-7-(2-(hydroxymethyl)thieno[3,2-b]pyridin-7-yl)-2,3-dihydrobenzofuran-2-yl)((S)-3-(dimethylamino)pyrrolidin-1-yl)methanone] | 1000 to 10000 nM
O=C(C1Cc2cc(Cl)cc(-c3ccnc(NCc4ccccc4)c3)c2O1)N1CCNCC1 (stereo not drawn) [(7-(2-(benzylamino)pyridin-4-yl)-5-chloro-2,3-dihydrobenzofuran-2-yl)(piperazin-1-yl)methanone] | 1000 to 10000 nM
CCC(O)c1cc2nccc(-c3cc(Cl)cc4c3O[C@@H](c3c5c(nn3C)CCNC5)C4)c2s1 (stereo partly drawn) [1-(7-((R)-5-chloro-2-(2-methyl-4,5,6,7-tetrahydro-2H-pyrazolo[4,3-c]pyridin-3-yl)-2,3-dihydrobenzofuran-7-yl)thieno[3,2-b]pyridin-2-yl)propan-1-ol] | < 1000 nM
CC[C@H](O)c1cc2nccc(-c3cc(Cl)cc4c3O[C@@](C)(c3onc5c3CNCC5)C4)c2s1 [(S)-1-(7-((R)-5-chloro-2-methyl-2-(4,5,6,7-tetrahydroisoxazolo[4,3-c]pyridin-3-yl)-2,3-dihydrobenzofuran-7-yl)thieno[3,2-b]pyridin-2-yl)propan-1-ol] | < 1000 nM
CC[C@H](O)c1cc2nccc(-c3cc(Cl)cc4c3O[C@@H](c3onc5c3CNCC5)C4)c2s1 [(S)-1-(7-((R)-5-chloro-2-(4,5,6,7-tetrahydroisoxazolo[4,3-c]pyridin-3-yl)-2,3-dihydrobenzofuran-7-yl)thieno[3,2-b]pyridin-2-yl)propan-1-ol] | < 1000 nM
CN1CCN(Cc2cc3nccc(-c4cc(Cl)cc5c4O[C@@H](C(=O)N4CCNCC4)C5)c3s2)C1=O [(R)-1-((7-(5-chloro-2-(piperazine-1-carbonyl)-2,3-dihydrobenzofuran-7-yl)thieno[3,2-b]pyridin-2-yl)methyl)-3-methylimidazolidin-2-one] | < 1000 nM
O=C([C@H]1Cc2cc(Cl)cc(-c3ccnc4cc(CO)sc34)c2O1)N1CCn2ccnc2C1 [(R)-(5-chloro-7-(2-(hydroxymethyl)thieno[3,2-b]pyridin-7-yl)-2,3-dihydrobenzofuran-2-yl)(5,6-dihydroimidazo[1,2-a]pyrazin-7(8H)-yl)methanone] | < 1000 nM
